In US8106092B2, “Treatment of solid cancers” (priority 2004, dated 2012):

Tests used:
[1] = tested on: CT26 colon carcinoma cells; test: PEP005-mediated cure of primaries plus peptide vaccine, CT26 colon carcinoma model; type: in vivo, Balb/c mice; conditions: Log rank p=0.011 (PEP005) and =0.013 (Vaccine)
Experimental: FIG. 14 is a graphical representation combining PEP005-mediated cure of primaries and cancer vaccination in the CT26 colon carcinoma model. (A) on d−3 […] mice were inoculated with 10^5 CT26 cells on the left flank (primary tumor) and 5×10^3 CT26 cells on the right flank (secondary tumor). On dO the primary CT26 tumors, which has reached 16.8+SD 3.2 mm^2 were cured with i.t. injections of 25 μg of PEP005 formulated in PEG400. On d3 and d10 mice received peptide vaccine containing the SPSYVYHQF [SEQ ID NO:5] epitope (n=9, PEP005+Vaccine). […] A third group was inoculated with secondary tumors only and received the vaccine (n=11, Vaccine), and the control group was given only secondary tumors and received no treatment (n=12, Controls). Animals were culled when the secondary tumors reached 100 mm^2.
CT26 colon carcinoma cells [CRL-2638] (Ali et al, 2002 supra) were grown s.c. in 6-10 week old female Balb/c mice.
The cancer vaccine comprised the gp70 A-1 peptide epitope SPSYVYHQF [SEQ ID NO:5] […]
To determine whether the effects seen in the B16 models could be repeated in a different tumor model and using a different cancer vaccine, four groups of Balb/c mice were established using the CT26 colon carcinoma model (Ali et al, J Immunol 168:3512-3519, 2002). […] The growth of secondary tumors was monitored as above.

B16 tumors = test: Example 2: sub-optimal topical PEP005 combined with M720/B16 vaccination and DC+IL-2, cure of primary B16 tumors; type: in vivo, C57BL/6 mice
Text: To determine whether PEP005 (ingenol-3-angelate) treatment could synergize with (i) vaccine-induced anti-cancer CD4^+ T-cells/antibodies and/or (ii) DC vaccine-induced anti-cancer CD8^+ T-cells, topical PEP005 treatment was combined with vaccination using (i) B16 lysate emulsified in Montanide ISA 720 adjuvant (M720/B16) and (ii) DC2.4 cells sensitized with TRP-2 peptide, SVYDFFVWL [SEQ ID NO:1] (a dominant CD8^+ T-cell epitope for anti-B16 CM^+ T-cells) and activated with LPS (Camporeale et al, Can Res 63:3688, 2003) (DC). The latter group also received IL-2 to maintain the vaccine induced T-cells. The topical PEP005 dose (10 μg/mouse) was known not to be sufficient to cure most B16 tumors of reasonable size. Thus, this experiment sought to determine whether improvements in B16 cure rate could be achieved when sub-optimal topical PEP005 treatment was combined with other immune-based therapies.
B16 tumors were injected 2×10^4 s.c. in groups (n=5 per group) of C57BL/6 mice and after 12 days (d0) had reached 8-12 mm^2 in size. The groups of animal received the following treatments:
PEP005: On d0, the tumors in this group were treated topically with PEP005, 10 μg/mouse in 10 μl isopropanol gel.
PEP005+M720: On d−5 (day minus 5), the animals had received Montanide ISA 720 adjuvant (M720) emulsified 7:3 v:v (Elliott et al, Vaccine. 17(15-16):2009-2019, 1999) with water (volume 100 μl/mouse s.c.) and on d0, the tumors in this group were treated topically with PEP005.
PEP005+M720/B16: On d−5, the animals had received Montanide ISA 720 adjuvant (M720) emulsified 7:3 v:v (Elliott et al, 1999 supra) with B16 cell lysate (3×10^5 B16 cells per mouse s.c., volume 100 μl/mouse) and on d0, the tumors in this group were treated topically with PEP005. A modality was known to induce CD4^+ T-cells specific for B16.
PEP005+M720/B16+DC+IL-2: On d0, the tumors in this group were treated topically with PEP005 and had been given M720/B16 as for Group 4. The group also received on d0 DC in the form of a DC cell line, DC2.4. These cells were (i) sensitized with TRP-2 peptide, SVYDFFVWL [SEQ ID NO:1] […]

In the case of C/C=C(/C)C(=O)O[C@H]1C(C)=C[C@]23C(=O)[C@@H](C=C(CO)[C@@H](O)[C@]12O)[C@H]1[C@@H](C[C@H]3C)C1(C)C [PEP005, ingenol-3-angelate], the “growth of secondaries vs no treatment controls” value [1] is reported as “significantly reduced the growth of secondaries”, the “regression of treated tumors” value (B16 tumors; all PEP005 treated tumors) is reported as “regressed by treatment to below detectable size” and the “day on which tumor became visible again / emerged” value (B16 tumors; day (d) after treatment on d0, growth curves FIG. 7) is reported as 4-5. The “treated tumors re-emerging (failure rate)” value (B16 tumors; topical 10 μg PEP005, combined PEP005/PEP005+M720 group n=10, tumors 8-12 mm^2) was 90%.
